Measured values as given in patent US5227490A, “Fibrinogen receptor antagonists” (Merck & Co., Inc., priority 1992, dated 1993).

Tested on: fibronectin and vitronectin
Test: not given
Settings: cited from earlier work

Compound	activity of the tri-peptide
arginine-glycine-aspartic acid [Arg-Gly-Asp]	low activity

Tested on: human platelets
Test: ADP-stimulated platelet aggregation assay (gel-filtered human platelets)
Assay type: cell-based
Settings: fibrinogen, CaCl2 1 mM, ADP-initiated, initial rate of increase of light transmittance, read-out: IC50 (inhibition of platelet aggregation)
Description: In addition to the following preparative procedures, several examples of in-vitro bioactivity of compounds within the scope of the present invention are indicated. To illustrate, one test which is used to evaluate fibrinogen receptor antagonist activity is based on evaluation of inhibition of ADP-stimulated platelets. Aggregation requires that fibrinogen bind to and occupy the platelet fibrinogen receptor site. Inhibitors of fibrinogen binding inhibit aggregation. In the ADP-stimulated platelet aggregation assay used to determine inhibition associated with the compounds claimed in the instant invention, human platelets are isolated from fresh blood, collected into acid citrate/dextrose by differential centrifugation followed by gel filtration on Sepharose 2 B in divalent ion-free Tyrode's buffer (pH 7.4) containing 2% bovine serum albumin.
Platelet aggregation is measured at 37° C. in a Chronolog aggregometer. The reaction mixture contains gel-filtered human platelets (2×10^8 per ml), fibrinogen (100 micrograms per ml (ug/ml)), Ca^2+ (1 mM), and the compound to be tested. The aggregation is initiated by adding 10 μM ADP 1 minute after the other components are added. The reaction is then allowed to proceed for at least 2 minutes. The extent of inhibition of aggregation is expressed as the percentage of the rate of aggregation observed in the absence of inhibitor. The IC50 is the dose of a particular compound inhibiting aggregation by 50% relative to a control lacking the compound.
The test procedures employed to measure the anti-platelet aggregating activity of the compounds of the present invention are described below.
Blood was drawn into 0.1 volumes of acid citrate-dextrose (85 mM sodium citrate, 64 mM citric acid, 110 mM dextrose) by venipuncture from normal human volunteers. Platelet-rich plasma was prepared by centrifugation at 400× g for 12 minutes. PGEl (5 mg/ml) was added and platelets were collected by centrifugation at 800× g for 12 minutes. The platelet pellet was resuspended into human platelet buffer (140 mM NaCl, 7.9 mM KCl, 3.3 mM Na2 HPO4, 6 mM HEPES, 2% bovine serum albumin, 0.1% dextrose, pH 7.2) and filtered over Sepharose 2B that was previously equilibrated in human platelet buffer. Human fibrinogen ([…]) and Ca Cl2 (1 mM) were added and aggregation was initiated by the addition of […]. Aggregation was monitored by the initial rate of increase of light transmittance.

IC50 [µM]	Compound
3.1	O=C(NCC(Cc1ccc(OCCCCC2CCNCC2)cc1)C(=O)O)c1ccccc1 (centres unmarked) [CH2 NHC(O)Ph, 2-[4-(4-Piperidin-4-yl)butyloxy]phenylmethyl-3-(benzoylamino)propanoic acid]
18	O=C(O)C(CNCc1ccccc1)Cc1ccc(OCCCCC2CCNCC2)cc1 (centres unmarked) [CH2 NHCH2 Ph, 2-[4-(4-Piperidin-4-yl)butyloxy]phenylmethyl-3-(benzylamino)propanoic acid]
115	O=C(O)C(Cc1ccccc1)Cc1ccc(OCCCCC2CCNCC2)cc1 (centres unmarked) [CH2 Ph, 3-[4-(4-Piperidin-4-yl)butyloxyphenyl]-2-(benzyl)propanoic acid]
1.6	O=C(O)C(Cc1ccc(OCCCCC2CCNCC2)cc1)CS(=O)(=O)Cc1ccccc1 (centres unmarked) [CH2 SO2 CH2 Ph, 2-[4-(4-N-piperidin-4-ylbutyloxy]phenylmethyl]-3-(benzylsulfonyl)propanoic acid]
8.6	O=C(O)C(O)Cc1ccc(OCCCCC2CCNCC2)cc1 (centres unmarked) [OH, 2-Hydroxy-3-[4-(4-piperidin-4-yl)butyloxyphenyl]propanoic acid]
3.2	O=C(O)C(Cc1ccc(OCCCCC2CCNCC2)cc1)C(=O)O [CO2 H, 2-Carboxy-3-[4-(4-Piperidin-4-yl)butyloxyphenyl]propanoic acid]

Continued, compound first:

Compound	IC50 [µM]
CCCCS(=O)(=O)CC(Cc1ccc(OCCCCC2CCNCC2)cc1)C(=O)O (centres unmarked) [CH2 SO2 C4 H9, 2-[4-(4-Piperidin-4-yl)butyloxy]phenylmethyl-3-(n-butylsulfonyl)propanoic acid]	0.65
COC(=O)C(Cc1ccc(OCCCCC2CCNCC2)cc1)C(=O)O (centres unmarked) [CO2 CH3, 2-(Carbomethoxy)-3-[4-(4-piperidin-4-yl)butyloxyphenyl]propanoic acid]	5.8
CCCCS(=O)(=O)NCC(Cc1ccc(OCCCCC2CCNCC2)cc1)C(=O)O (centres unmarked) [CH2 NHSO2 C4 H9, 2-[4-(4-Piperindin-4-yl)butyloxy]phenylmethyl-3-(n-butylsulfonylamino)propanoic acid]	2.9

Tested on: gpIIb/IIIa complex
Test: not given
Settings: snake venom polypeptides; cited from earlier work

Compound	affinity for the gpIIb/IIIa complex
Echistatin	high affinity
